This note sets out measurements from PMC7546441 (Nature chemical biology, 2019).

One test addresses Bs GDH (Bacillus subtilis, UniProt P12310). As to the kind of experiment: full steady-state kinetics, ordered bi-bi fit, […] nm. Particulars: cofactor and glucose varied, 35 mM Tris-HCl pH 8.0, 25 °C. Type of test: biochemical.
In another test the target is XenA (Pseudomonas putida, UniProt Q9R9V9). Description: initial rate, absorbance at […] nm. Type of test: biochemical. Conditions: 0.2 mM NMNH, 5 mM ketoisophorone, 200 mM phosphate pH 7.5, 37 °C.

Chain of Bs GDH (P12310 whole entry): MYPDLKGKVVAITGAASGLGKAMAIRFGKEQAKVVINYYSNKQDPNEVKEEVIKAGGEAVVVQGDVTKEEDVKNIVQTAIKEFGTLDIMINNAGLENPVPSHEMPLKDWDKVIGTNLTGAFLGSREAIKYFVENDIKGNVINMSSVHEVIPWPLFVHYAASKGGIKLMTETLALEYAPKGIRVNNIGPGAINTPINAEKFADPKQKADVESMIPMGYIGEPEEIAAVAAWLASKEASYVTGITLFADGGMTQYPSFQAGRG

For the molecule `OC[C@H]1OC(O)[C@H](O)[C@@H](O)[C@@H]1O` (stereo partly drawn) [D-glucose], at Bs GDH, the KB result was “KA and KB are Michaelis constants for cofactor and substrate, respectively”.
On to `NC(=O)C1=CN([C@@H]2O[C@H](COP(=O)(O)O)[C@@H](O)[C@H]2O)C=CC1` [NMNH], for which the “initial rate, absorbance at 340 nm” value at XenA is “reduced NMN^+ (NMNH) was also well accepted by XenA”.
